Activity calls are given as the source filed them. The calls are words filed in the database; no cut-off is given here.

The term IC50 denotes the midpoint of a concentration-inhibition curve. As a reminder, the inhibition in vivo is the change of the read-out against control, counted positive when it falls.

Data set [1] relates to MDA-MB-231. Description: Cytotoxicity against human MDA-MB-231 cells assessed as reduction in cell viability incubated for 24 hrs by CellTiter-Glo luminescent assay. Type of data set: functional, cell-based. As to conditions: Homo sapiens, MDA-MB-231, 24 h. In general terms: ATP-based viability assays read luminescence as a measure of living cells.
Data set [2] deals with MDA-MB-468. Kind of data set: Cytotoxicity against human MDA-MB-468 cells assessed as reduction in cell viability incubated for 24 hrs by CellTiter-Glo luminescent assay. Format: functional, cell-based. As to conditions: Homo sapiens, MDA-MB-468, 24 h.
Data set [3] addresses Dihydroorotate dehydrogenase (quinone), mitochondrial (Homo sapiens, UniProt Q02127). Description: Inhibition of recombinant N-terminal His-tagged human DHODH (31 to 395 residues) expressed in Escherichia coli using DL-dihydroorotic acid as substrate and Q0 as coenzyme by DCIP based assay.
A further data set has as its system LNCaP C4-2B. Description: Cytotoxicity against human LNCaP C4-2B cells assessed as reduction in cell viability incubated for 24 hrs by CellTiter-Glo luminescent assay. Format: functional, cell-based.
Another data set relates to 143B. Description: Cytotoxicity against human 143B cells assessed as reduction in cell viability incubated for 24 hrs by CellTiter-Glo luminescent assay. Type of data set: functional, cell-based.
In the next data set the test system is HL-60. Kind of data set: Cytotoxicity against human HL-60 cells assessed as reduction in cell viability incubated for 24 hrs by CellTiter-Glo luminescent assay. Format: functional, cell-based.
Data set [4] relates to MDA-MB-231. Kind of data set: Induction of apoptosis in human MDA-MB-231 cells assessed as increase in apoptotic cells incubated for 2 days by annexin-V/FITC propidium iodide staining based flow cytometry analysis. Type of data set: functional, cell-based. As to conditions: time 2.0 day. Background: Flow cytometry measures light scatter and fluorescence of single cells or particles in a stream.

Data set [5] relates to MDA-MB-468. Description: Induction of apoptosis in human MDA-MB-468 cells assessed as increase in apoptotic cells incubated for 2 days by annexin-V/FITC propidium iodide staining based flow cytometry analysis. As to conditions: time 2.0 day. Format: functional, cell-based.
Data set [6] has as its system MDA-MB-231. Description: Induction of apoptosis in human MDA-MB-231 cells assessed as increase in cleaved PARP1 level measured after 2 days by Western blot analysis. Type of data set: functional, cell-based. As to conditions: dose 0.5-2 µM, time 2.0 day. Background: Immunoblotting shows a protein as a band on a membrane.
Data set [7] concerns MDA-MB-468. Kind of data set: Induction of apoptosis in human MDA-MB-468 cells assessed as increase in cleaved PARP1 level measured after 2 days by Western blot analysis. Format: functional, cell-based. As to conditions: dose 0.5-2 µM, time 2.0 day.
Data set [8] deals with MDA-MB-231. Kind of data set: Induction of apoptosis in human MDA-MB-231 cells assessed as increase in cleaved caspase7 level measured after 2 days by Western blot analysis. Type of data set: functional, cell-based. As to conditions: dose 0.5-2 µM, time 2.0 day.
For data set [9], the system named is MDA-MB-468. Kind of data set: Induction of apoptosis in human MDA-MB-468 cells assessed as increase in cleaved caspase7 level measured after 2 days by Western blot analysis. Type of data set: functional, cell-based. As to conditions: dose 0.5-2 µM, time 2.0 day.
The test system of data set [10] is MDA-MB-231. Description: Inhibition of cell proliferation in human MDA-MB-231 cells at <=10 uM incubated for 4 days in presence of uridine by CellTiter-Glo luminescent assay. Format: functional, cell-based. As to conditions: dose microM <=10, time 4.0 day.
The test system of data set [11] is MDA-MB-468. Description: Inhibition of cell proliferation in human MDA-MB-468 cells at <=10 uM incubated for 4 days in presence of uridine by CellTiter-Glo luminescent assay. Format: functional, cell-based. As to conditions: dose microM <=10, time 4.0 day.
Data set [12] is described as follows: Antitumor activity against patient-derived breast cancer cells xenografted in NOD/SCID mouse assessed as tumor growth suppression at 5 mg/kg, ip administered 5 times a week and measured after 16 days relative to control. Type of data set: functional. As to conditions: Homo sapiens, Breast cancer cell line, 384 h, time 16 day.
A short description of data set [13]: Antitumor activity against patient-derived breast cancer cells xenografted in NOD/SCID mouse assessed as reduction in tumor volume at 5 mg/kg, ip administered 5 times a week and measured after 16 days relative to control. As to conditions: time 16 day. Format: functional, Homo sapiens, Breast cancer cell line. More on the design: scale not given: the % may be the effect or the level left.

The nature of data set [14]: Toxicity in NOD/SCID mouse xenografted with patient-derived breast cancer cells assessed as effect on body weight loss at 5 mg/kg, ip administered 5 times a week and measured after 16 days. As to conditions: in vivo, 384 h, time 16 day. Type of data set: organism-based.
Data set [15] is described as follows: Toxicity in NOD/SCID mouse xenografted with patient-derived breast cancer cells assessed as effect on organ damage at 5 mg/kg, ip administered 5 times a week and measured after 16 days by hematoxylin and eosin staining based analysis. Type of data set: organism-based. As to conditions: in vivo, 384 h, time 16 day.
A further data set relates to Breast cancer cell line. Kind of data set: Antitumor activity against patient-derived breast cancer cells xenografted in NOD/SCID mouse assessed as tumor growth suppression at 20 mg/kg, ip administered every 2 days and measured after 21 days. As to conditions: Homo sapiens, time 21.0 day. Format: functional, organism-based.

Sequence of Dihydroorotate dehydrogenase (quinone), mitochondrial (Q02127 whole entry, the tested form may be a part): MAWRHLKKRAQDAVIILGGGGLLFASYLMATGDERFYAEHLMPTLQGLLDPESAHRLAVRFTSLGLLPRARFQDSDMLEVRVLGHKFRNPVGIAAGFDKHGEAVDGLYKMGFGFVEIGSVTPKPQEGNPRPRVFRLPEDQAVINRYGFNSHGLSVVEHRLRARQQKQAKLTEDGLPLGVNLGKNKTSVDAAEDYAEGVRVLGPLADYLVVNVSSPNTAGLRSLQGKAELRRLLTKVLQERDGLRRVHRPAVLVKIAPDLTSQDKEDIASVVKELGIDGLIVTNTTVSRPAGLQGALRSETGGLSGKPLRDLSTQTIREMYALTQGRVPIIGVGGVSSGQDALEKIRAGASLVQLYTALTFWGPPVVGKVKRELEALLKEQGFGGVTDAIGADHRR

`C/C(=C\C[C@@]1(C)[C@H](C)CCC(=O)[C@@H]1C)[C@@H](O)Cc1c(O)c(Cl)c(C)c(C=O)c1O`: the IC50 came to 41 µM with MDA-MB-231 [1], 15 µM in the data set on MDA-MB-468 [2] and 4.7 µM in data set [3].

In the case of `C=C1CC[C@H](O)C(C)(C)[C@@H]1CC/C(C)=C/Cc1c(O)c(Cl)c(C)c(C=O)c1O`, the values for the IC50 (with MDA-MB-231 [1]; in the data set on MDA-MB-468 [2]; in [3]) were 0.65 µM, 0.48 µM and 0.074 µM, respectively. Moreover, the Activity result in the data set on LNCaP C4-2B, in the data set with 143B, in the data set with HL-60, in the data set on MDA-MB-231 [4], in the data set with MDA-MB-468 [5] and in the data set with MDA-MB-231 [6] was “Dose-Dependent Effect” each time. In addition, the Activity entry in the data set on MDA-MB-468 [7] is “Dose-Dependent Effect”; in the data set on MDA-MB-231 [8] it was “Dose-Dependent Effect”; in the data set with MDA-MB-468 [9] it was “Dose-Dependent Effect”; in data set [13], 37.41%; in [14], “Non-Toxic”; in data set [15] it was “Non-Toxic”. The inhibition entry with MDA-MB-231 [10] and in the data set with MDA-MB-468 [11] was “inactive” in each case. The inhibition in vivo at 5 mg/kg in data set [12] turned out to be 51.7%.

`CC(/C=C/[C@@]1(C)[C@H](C)CC[C@@H](O)[C@@H]1C)=C\Cc1c(O)c(Cl)c(C)c(C=O)c1O`: the IC50 with MDA-MB-231 [1] was more than 60 µM; with MDA-MB-468 [2] it was more than 60 µM; in [3], 13 µM.

Take `C/C(=C\Cc1c(O)cc(C)c(C=O)c1O)CC/C=C(\C)CC[C@H](O)C(C)(C)O`: the IC50 is more than 60 µM in the data set on MDA-MB-231 [1], 29 µM with MDA-MB-468 [2] and 5 µM in data set [3].

Consider `O=c1[nH]cc(F)c(=O)[nH]1` [FLUOROURACIL], for which the figures for the IC50 in the data set on MDA-MB-231 [1] and in the data set with MDA-MB-468 [2] were 15 µM and more than 20 µM, respectively.

Consider `C/C(O)=C(\C#N)C(=O)Nc1ccc(C(F)(F)F)cc1` [TERIFLUNOMIDE], for which the results for the IC50 with MDA-MB-231 [1] and in the data set on MDA-MB-468 [2] were 14 µM and more than 20 µM, respectively. The inhibition entry in the data set on Breast cancer cell line is “Active”.

Regarding `C/C(=C\Cc1c(O)c(Cl)c(C)c(C=O)c1O)[C@H](O)C[C@@]1(C)[C@H](C)CCC(=O)[C@@H]1C`, the IC50 is 38 µM in the data set on MDA-MB-231 [1], 45 µM in the data set with MDA-MB-468 [2] and 6.5 µM in [3].

On to `C/C(=C\Cc1c(O)cc(C)c(C=O)c1O)CC[C@@]1(C)[C@H](C)CCC(=O)[C@@H]1C` [ILICICOLIN F], for which the values for the IC50 (in the data set on MDA-MB-231 [1]; with MDA-MB-468 [2]; in data set [3]) were 26 µM, 27 µM and 11 µM, respectively.

As for `CC(/C=C/[C@@]1(C)[C@H](C)CCC(=O)[C@@H]1C)=C\Cc1c(O)c(Cl)c(C)c(C=O)c1O` [ASCOCHLORIN], the IC50 is 2.2 µM in the data set on MDA-MB-231 [1], 1.1 µM in the data set with MDA-MB-468 [2] and 1.3 µM in [3].

Regarding `C/C(=C\Cc1c(O)c(Cl)c(C)c(C=O)c1O)CC/C=C(\C)[C@@H]1CC(=O)C(C)(C)O1` [ASCOFURANONE], the half-maximal inhibitory concentration (IC50) in the data set with MDA-MB-231 [1] was determined as 5.2 µM; in the data set with MDA-MB-468 [2], 7.1 µM; in data set [3], 5.4 µM.

With `C/C(=C\Cc1c(O)c(Cl)c(C)c(C=O)c1O)CC/C=C(\C)CC[C@@H]1OC1(C)C`, the IC50 in the data set with MDA-MB-231 [1] was 24 µM; in the data set on MDA-MB-468 [2], 16 µM; in data set [3], 1.6 µM.

Consider `C/C(=C\Cc1c(O)c(Cl)c(C)c(C=O)c1O)CC/C=C(\C)CCC(=O)C(C)(C)O`, for which the IC50 is more than 60 µM in the data set with MDA-MB-231 [1], more than 60 µM in the data set with MDA-MB-468 [2] and 9.3 µM in data set [3].

For `C/C(=C\Cc1c(O)c(Cl)c(C)c(C=O)c1O)CC[C@H]1C(C)(C)C(=O)CC[C@@]1(C)O`, the IC50 was more than 60 µM in the data set with MDA-MB-231 [1], more than 60 µM in the data set with MDA-MB-468 [2] and 11 µM in data set [3].

Take `C/C(=C\Cc1c(O)c(Cl)c(C)c(C=O)c1O)CC[C@H]1C(C)(C)C(=O)CC[C@]1(C)O`: the IC50 is more than 60 µM with MDA-MB-231 [1], more than 60 µM in the data set on MDA-MB-468 [2] and 34 µM in data set [3].
